Results taken from patent publication US20090270391A1, “THIENOPYRIDINE DERIVATIVE, OR QUINOLINE DERIVATIVE, OR QUINAZOLINE DERIVATIVE, HAVING c-MET AUTOPHOSPHORYLATION INHIBITING POTENCY” (Kirin Pharma Kabushiki Kaisha, priority 2005, published 2009).

Columns and labels:
[1] = target: T1, c-Met (Homo sapiens, UniProt P08581); test: c-Met autophosphorylation inhibition in culture cells A431, HGF stimulated (immunoprecipitation/blot); type: cell-based; set-up: endogenous in cells; conditions: 50 ng/ml HGF
Description: (§1) MKN45 (human poorly differentiated gastric cancer cell line, Riken) and A431 (human epithelioid cancer cell line, JCRB) were used for the measurement of c-Met autophosphorylation inhibition, and HUVEC (human vascular endothelial cells, KURABO INDUSTRIES LTD.) was used for the measurement of KDR autophosphorylation inhibitory activity.
(§2) MKN45 (2.5×10^5/well) or A431 (8.5×10^5/well) was inoculated into wells, containing RPMI (GIBCO) containing 0.1% fetal calf serum (JRH Biosciences), in a 6-well plate (Collagen Type I coated Plate, 4810-010, IWAKI), and, 24 hr after the inoculation, the medium was replaced with an RPMI medium containing 0.10% fetal calf serum. Thereafter, compound A was added, followed by incubation for 90 min under conditions of 37° C. and 5% CO2. The culture was removed without stimulation for MKN45 and after stimulation for 10 min with 50 ng/ml HGF (294-HG, R&D SYSTEMS) for A431. A solubilizing buffer solution (20 mM HEPES (pH 7.4), 150 mM NaCl, 0.2% TritonX-100, […], 5 mM sodium orthovanadylate, 5 mM disodium ethylenediaminetetraacetate, and 2 mM Na4P2O7) (500 μl/well) was added to satisfactorily solubilize the cells. […] The film was quantified by Scion Image, and the IC50 value was determined with an analysis software Graph Pad Prism Ver.4 (Graph Pad Software, Inc.).
Target sequence in this assay (P08581 25-1390): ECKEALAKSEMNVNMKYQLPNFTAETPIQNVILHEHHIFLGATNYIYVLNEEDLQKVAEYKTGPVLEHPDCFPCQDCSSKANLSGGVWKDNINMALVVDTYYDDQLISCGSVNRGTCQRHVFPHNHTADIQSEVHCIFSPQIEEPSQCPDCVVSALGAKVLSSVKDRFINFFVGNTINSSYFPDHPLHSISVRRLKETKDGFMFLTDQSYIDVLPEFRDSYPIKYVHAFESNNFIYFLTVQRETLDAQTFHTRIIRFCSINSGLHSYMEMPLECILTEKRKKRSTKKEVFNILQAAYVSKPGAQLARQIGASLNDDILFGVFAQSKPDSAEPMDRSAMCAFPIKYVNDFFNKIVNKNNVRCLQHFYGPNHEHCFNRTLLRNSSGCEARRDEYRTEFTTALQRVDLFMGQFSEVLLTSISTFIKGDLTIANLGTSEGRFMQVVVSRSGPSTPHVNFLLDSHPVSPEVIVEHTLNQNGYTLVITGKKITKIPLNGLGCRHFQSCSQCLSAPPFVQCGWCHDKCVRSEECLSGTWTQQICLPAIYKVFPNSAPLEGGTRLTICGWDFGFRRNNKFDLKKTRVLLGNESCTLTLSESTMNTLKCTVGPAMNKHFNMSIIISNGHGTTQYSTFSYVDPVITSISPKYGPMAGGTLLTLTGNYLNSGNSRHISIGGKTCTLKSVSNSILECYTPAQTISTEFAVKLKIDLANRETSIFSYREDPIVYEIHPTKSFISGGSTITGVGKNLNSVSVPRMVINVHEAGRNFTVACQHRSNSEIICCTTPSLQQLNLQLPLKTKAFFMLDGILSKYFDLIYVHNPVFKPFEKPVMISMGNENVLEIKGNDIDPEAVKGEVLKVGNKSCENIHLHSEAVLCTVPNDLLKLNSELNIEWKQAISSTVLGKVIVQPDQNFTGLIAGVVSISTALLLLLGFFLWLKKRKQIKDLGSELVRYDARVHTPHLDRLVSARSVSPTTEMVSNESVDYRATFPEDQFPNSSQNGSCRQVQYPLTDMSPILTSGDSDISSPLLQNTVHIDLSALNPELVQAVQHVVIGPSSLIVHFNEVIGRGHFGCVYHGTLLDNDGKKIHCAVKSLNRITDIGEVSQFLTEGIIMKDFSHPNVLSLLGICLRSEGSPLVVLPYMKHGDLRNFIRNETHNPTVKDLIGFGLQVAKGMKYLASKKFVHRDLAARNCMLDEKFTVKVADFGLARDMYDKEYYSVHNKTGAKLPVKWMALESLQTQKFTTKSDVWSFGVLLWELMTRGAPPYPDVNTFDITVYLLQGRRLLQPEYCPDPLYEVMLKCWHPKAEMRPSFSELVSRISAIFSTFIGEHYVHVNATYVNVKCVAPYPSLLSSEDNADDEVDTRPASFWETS

[2] = test system: mouse lower limb bone growth plate; test: Influence on mouse lower limb bone growth plate; type: in vivo; conditions: nude mice, 50 mg/kg oral once a day for 4 weeks
Method: Nude mice (BALB-nu/nu, female, four weeks old, Charles River Japan, Inc.) were preliminarily raised for one week, and the mice were grouped so that each group consisted of 8 mice. Compound A (50 mg/kg) suspended in 0.5% methylcellulose was orally administered once a day for 4 weeks to the compound A group. On the other hand, 0.5% methylcellulose was administered to the control group in the same manner as in the compound A group.
On the 29th day after the initiation of the administration, the animals were killed from ether anesthesia. A lower limb bone around the knee region was removed, was fixed in buffer formalin, was deashed and was then subjected to paraffin embedding. A thin sliced sample was dyed with HE, and the knee bone was photographed, and whether or not thickening of the bone growth plate occurs was quantitatively determined with an image analysis software (WinROOF Ver5, MITANI CORPORATION).

[3] = target: T2, KDR (Homo sapiens, UniProt P35968); test: KDR autophosphorylation inhibition in HUVEC, VEGF stimulated; type: cell-based; set-up: endogenous in cells; host or cells: HUVEC; conditions: 50 ng/ml VEGF
Description: as §1
Target sequence in this assay (P35968 20-1356): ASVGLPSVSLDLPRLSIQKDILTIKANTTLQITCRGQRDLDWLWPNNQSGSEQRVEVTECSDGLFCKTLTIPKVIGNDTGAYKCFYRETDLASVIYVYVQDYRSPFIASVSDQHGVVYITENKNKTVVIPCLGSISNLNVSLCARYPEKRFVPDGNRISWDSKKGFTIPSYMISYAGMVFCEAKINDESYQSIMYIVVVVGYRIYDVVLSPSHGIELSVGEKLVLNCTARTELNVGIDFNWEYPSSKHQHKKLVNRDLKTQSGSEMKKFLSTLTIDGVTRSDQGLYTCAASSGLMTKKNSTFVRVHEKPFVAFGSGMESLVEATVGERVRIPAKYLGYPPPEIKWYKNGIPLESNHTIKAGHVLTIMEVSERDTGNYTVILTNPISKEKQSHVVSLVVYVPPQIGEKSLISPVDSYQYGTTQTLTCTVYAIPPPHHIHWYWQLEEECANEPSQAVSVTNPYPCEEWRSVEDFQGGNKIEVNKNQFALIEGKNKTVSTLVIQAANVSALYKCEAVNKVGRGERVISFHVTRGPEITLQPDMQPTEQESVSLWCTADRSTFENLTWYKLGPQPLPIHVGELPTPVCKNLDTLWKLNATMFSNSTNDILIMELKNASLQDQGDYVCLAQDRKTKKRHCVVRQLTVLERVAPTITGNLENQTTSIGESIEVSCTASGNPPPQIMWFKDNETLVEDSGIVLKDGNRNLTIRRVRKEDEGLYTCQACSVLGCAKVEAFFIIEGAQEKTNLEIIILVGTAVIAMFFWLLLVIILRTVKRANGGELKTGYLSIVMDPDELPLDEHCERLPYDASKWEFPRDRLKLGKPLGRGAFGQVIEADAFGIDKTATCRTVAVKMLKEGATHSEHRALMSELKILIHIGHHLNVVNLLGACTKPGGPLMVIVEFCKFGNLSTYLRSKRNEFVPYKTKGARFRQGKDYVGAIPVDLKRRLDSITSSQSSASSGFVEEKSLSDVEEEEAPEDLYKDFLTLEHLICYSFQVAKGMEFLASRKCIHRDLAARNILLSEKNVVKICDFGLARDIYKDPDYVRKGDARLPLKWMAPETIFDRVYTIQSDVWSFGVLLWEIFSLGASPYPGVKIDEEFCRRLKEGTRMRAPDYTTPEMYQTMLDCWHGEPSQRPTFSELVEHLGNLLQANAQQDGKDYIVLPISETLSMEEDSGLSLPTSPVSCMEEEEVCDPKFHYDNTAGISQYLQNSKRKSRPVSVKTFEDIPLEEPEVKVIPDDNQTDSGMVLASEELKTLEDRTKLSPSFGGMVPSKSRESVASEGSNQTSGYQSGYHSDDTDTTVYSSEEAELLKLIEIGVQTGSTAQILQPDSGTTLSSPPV
HUVEC was inoculated into an EGM medium (KURABO INDUSTRIES LTD.) so that the number of cells was 2×10^6/100-mm Petri dish (Collagen coated Dish, 4020-010, IWAKI), and, 24 hr after the inoculation, the EGM medium was replace with an EBM medium containing 0.5% fetal calf serum (KURABO INDUSTRIES LTD.). Compound A was added, and the mixture was incubated for 90 min. After stimulation with 50 ng/ml of VEGF (100-20, PeproTech, Inc.) for 5 min, the culture was removed. The residue was subjected to immunoprecipitation with a KDR antibody (Flk-1, C-1158, Santa Cruz) by the above c-Met autophosphorylation inhibitory activity measuring method, followed by SDS-PAGE to measure KDR autophosphorylation inhibitory activity.

[4] = target: T1, c-Met; test: c-Met autophosphorylation inhibition in culture cells MKN45 (immunoprecipitation/blot); type: cell-based; set-up: endogenous in cells; host or cells: MKN45
Description: as §1, §2
Target sequence in this assay (P08581 25-1390): as the sequence (P08581 25-1390) above

[5] = target: T1, c-Met; test: c-Met enzyme inhibitory activity (32P-ATP, SDS-PAGE); type: biochemical; set-up: purchased upstate 14-526
Method: (§3) c-Met protein (upstate, Lot: 25735AU, catalog code 14-526) was diluted with EDB (20 mM MOPS (pH 7.0), 1 mM EDTA, 0.01% Brij 35, 5% glycerol, 0.1% β-mercaptoethanol, and 1 mg/ml BSA) to 10 ng/μl. The KDR protein (812-1346AA) was prepared from SF21 insect cells (affinity purification, 12.4 μg/μl) according to the protocol of Invitrogen (Bac to Bac (tradename) baculovirus expression system) and was diluted with EDB to 248 ng/μl. A five-fold concentration of a reaction buffer (40 mM MOPS (pH 7.4), 1 mM EDTA) (5 μl), a ten-fold concentration of compound A (5 μl), 250 mM MnCl2 (2.5 μl), sterilized distilled water (2.5 μl), c-Met protein or KDR protein (5 μl) was mixed thereinto under ice cooling. An ATP reaction solution (25 mM ATP, 10 μci/μl γ-^32P-ATP (1 μl), 25 mM Mg (OAc)2, and 1.25 mM Hepes (pH7.4)) (10 μl) was added, and the mixture was allowed to react at 37° C. for 10 min. A tris-SDS β-ME sample treatment liquid (301780, Daiichi Kagaku Inc.) (10 μl) was added to stop the reaction. The reaction solution was boiled at 95° C. for 5 min and was then subjected to SDS-PAGE. The gel after the migration was packed, and an imaging plate (Fuji Film) was applied to the gel for transfer, followed by analysis with Typhoon (Amersham Biosciences). The IC50 value was calculated with a software for analysis Graph Pad Prism Ver.4 (Graph Pad Software, Inc.).
Target sequence in this assay (P08581 974-1390 limits assumed): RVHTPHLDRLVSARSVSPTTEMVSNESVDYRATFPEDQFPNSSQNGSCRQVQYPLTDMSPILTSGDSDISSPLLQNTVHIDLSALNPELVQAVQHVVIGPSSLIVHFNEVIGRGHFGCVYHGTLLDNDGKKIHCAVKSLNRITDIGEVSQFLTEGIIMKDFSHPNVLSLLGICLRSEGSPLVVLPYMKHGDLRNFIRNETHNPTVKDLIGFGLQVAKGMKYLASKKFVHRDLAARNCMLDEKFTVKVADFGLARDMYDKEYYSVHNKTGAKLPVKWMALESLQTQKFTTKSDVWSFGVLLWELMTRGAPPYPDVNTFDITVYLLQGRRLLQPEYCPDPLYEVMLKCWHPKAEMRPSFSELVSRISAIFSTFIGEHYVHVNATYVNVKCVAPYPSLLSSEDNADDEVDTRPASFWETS

[6] = target: T2, KDR; test: KDR enzyme inhibitory activity (32P-ATP, SDS-PAGE); type: biochemical; set-up: The KDR protein (812-1346AA) was prepared from SF21 insect cells; made in house; host or cells: SF21 insect cells (Bac to Bac baculovirus system)
Method: as §3
Target sequence in this assay (P35968 812-1346): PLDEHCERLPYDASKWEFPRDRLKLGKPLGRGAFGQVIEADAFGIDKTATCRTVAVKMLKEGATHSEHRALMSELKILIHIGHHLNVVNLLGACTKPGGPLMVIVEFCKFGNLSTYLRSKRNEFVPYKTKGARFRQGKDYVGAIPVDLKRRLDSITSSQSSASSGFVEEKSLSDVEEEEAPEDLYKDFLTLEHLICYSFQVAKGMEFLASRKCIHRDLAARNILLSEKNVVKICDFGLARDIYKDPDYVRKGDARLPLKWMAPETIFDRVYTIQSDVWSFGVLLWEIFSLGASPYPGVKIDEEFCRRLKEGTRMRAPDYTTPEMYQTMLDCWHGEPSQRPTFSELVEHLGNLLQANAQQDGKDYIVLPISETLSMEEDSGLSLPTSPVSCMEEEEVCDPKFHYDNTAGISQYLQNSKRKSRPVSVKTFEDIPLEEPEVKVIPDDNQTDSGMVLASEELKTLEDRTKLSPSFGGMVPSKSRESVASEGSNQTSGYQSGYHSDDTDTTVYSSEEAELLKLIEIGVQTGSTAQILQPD

[7] = target: T2, KDR; test: KDR autophosphorylation inhibitory activity (general statement)
Target sequence in this assay (P35968 20-1356): as the sequence (P35968 20-1356) above

[8] = target: T1, c-Met; test: c-Met autophosphorylation inhibitory activity (general statement)
Target sequence in this assay (P08581 25-1390): as the sequence (P08581 25-1390) above

[9] = test system: Human gastric cancer cell line NU-GC-4; test: Tumor growth inhibitory activity against human gastric cancer cell line NU-GC-4 in nude mice; type: in vivo; conditions: 25 mg/kg oral once a day, 10th day
Method: Human gastric cancer cell line NU-GC-4 (available from Cell Resource Center for Biomedical Research, Institute of Development Aging and Cancer, Tohoku University) is transplanted into nude mice. When the tumor volume becomes about 100 mm^3, the mice are grouped so that the groups each consist of four mice and have an even average tumor volume. The test compound suspended in 0.5% methylcellulose is orally administered once a day for 9 days.
Only 0.5% methylcellulose is administered to the control group in the same manner as in the test groups. The tumor growth inhibition rate (TGIR) is calculated as follows: The tumor growth inhibition rate (TGIR)=(1−TX/CX)×100 wherein CX represents the volume of tumor at day X for the control group and TX represents the volume of tumor for test compound administration groups, when the tumor volume at the day of the start of the administration is presumed to be 1.

[10] = Human liver microsome test; type: in vitro ADME; conditions: data not shown

- IC50 [1]: 9.3 nM
- bone growth plate area ([2]; versus control group): no significant difference
- IC50 [3]: ≥ 1000 nM
- IC50 ([4]; c-Met (MKN45), without stimulation): 11.3 nM
- c-Met/KDR selectivity ([4]; c-Met versus KDR autophosphorylation in culture cells): high
- IC50 [5]: 15.5 nM
- IC50 [6]: ≥ 1000 nM
- KDR autophosphorylation inhibitory activity [7]: low
- c-Met autophosphorylation inhibitory activity [8]: high
- metabolic rate [10]: proper metabolic rate
Compound: COc1cc(Oc2ccnc3cc(OC)c(OC)cc23)ccc1NC(=S)NC(=O)Cc1ccc(F)cc1 [Compound A, N-[4-{(6,7-dimethoxy-4-quinolyl)oxy}-2-methoxyphenyl]-N′-[2-(4-fluorophenyl)acetyl]thiourea]
- thickening of the bone growth plate [2]: did not induce the thickening of the bone growth plate
- TGIR (tumor growth inhibition rate) [9]: 78%
